28 molecules from PubChem BioAssay (NCI) can be followed below.

Common to all, as to assay: NCI anticancer screen, dose series, 48 h
Experiment [1] deals with MDA-MB-435.
In experiment [2] the test system is NCI-H226 lung.
Experiment [3] relates to RXF 393 renal.
The test system of experiment [4] is HT29 colon.
Experiment [5] deals with IGROV1 ovarian.
In experiment [6] the test system is ACHN renal.
The test system of experiment [7] is DU-145 prostate.
The test system of experiment [8] is RPMI-8226 leukemia.
Experiment [9] has as its system SK-MEL-2 melanoma.
Experiment [10] has as its system SK-OV-3 ovarian.

SMILES strings stand for the structures.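 Each compound was tested at five concentrations against cells in 96-well plates for 48 hours. TGI: total growth inhibition.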 Where a SMILES comes first, the peptide text is derived from it. Bridges are numbered along the chain shown (N, C = ends).

On to `O=[N+]([O-])/C(Cl)=C(\NCCO)C(Cl)=C(Cl)Cl`, for which the TGI in experiment [1] is greater than 100 µM; in [2], greater than 100 µM; in experiment [3], greater than 96.3 µM; in experiment [4] it was greater than 100 µM; in experiment [5], greater than 100 µM; in experiment [6] it was greater than 100 µM. In addition, the TGI in [7] was greater than 100 µM; in experiment [8] it was 40.5 µM; in [9], greater than 100 µM; in experiment [10], greater than 100 µM.
For the molecule `CC(=O)OC1C2CCC3CC2C2(SCCS2)C31` (stereo not given), the TGI in [1], in experiment [2], in [3], in experiment [4], in experiment [5] and in experiment [6] was greater than 100 µM in each case. Further, the TGI in [7], in experiment [8], in experiment [9] and in experiment [10] was greater than 100 µM in each case.
With `Cc1cccc(NC(=S)Nc2cccc(Cl)c2)n1`, the TGI in [1], in [2], in experiment [3], in experiment [4], in experiment [5] and in experiment [6] was greater than 100 µM each time. Also, the TGI in experiment [7] is greater than 100 µM; in experiment [8] it was greater than 100 µM; in [9], greater than 100 µM; in experiment [10], 98.6 µM.
Regarding `CC1=NN(c2ccccc2)C(=O)/C1=C\c1c(C)[nH]n(-c2ccccc2)c1=O`, the TGI in experiment [1], in [2], in [3], in experiment [4], in [5] and in experiment [6] was greater than 100 µM in each case. In addition, the TGI in experiment [7] was greater than 100 µM; in experiment [8], 83.3 µM; in experiment [9], greater than 100 µM; in experiment [10], greater than 100 µM.
For the molecule `COc1ccc(NCn2nc(CCCCCCCCc3nn(CNc4ccc(OC)cc4)c(=S)o3)oc2=S)cc1`, the TGI in experiment [1], in [2], in [3], in [4], in [6] and in [7] was greater than 100 µM each time. Moreover, the TGI in experiment [8], in [9] and in [10] was greater than 100 µM throughout.
Consider `N#Cc1nc(CN2C(=O)c3ccccc3C2=O)oc1N`, for which the TGI in experiment [1], in experiment [2], in experiment [3], in experiment [4], in experiment [5] and in experiment [6] was greater than 100 µM in each case. For the same molecule, the TGI in experiment [7], in experiment [8], in [9] and in experiment [10] was greater than 100 µM throughout.
As for `CC(C)(C)N=C1C(=O)C2(C)CCC1C2(C)C` (stereo not given), the TGI in [1], in experiment [2], in experiment [3], in [4], in [5] and in experiment [6] was greater than 100 µM throughout. In addition, the TGI in experiment [7], in experiment [8], in experiment [9] and in experiment [10] was greater than 100 µM throughout.
Take `Oc1c(NCn2nc(CCCCCCCCc3nn(CNc4ccc5ccccc5c4O)c(=S)o3)oc2=S)ccc2ccccc12`: the TGI in [1] is 43.2 µM; in experiment [2], greater than 100 µM; in experiment [3], greater than 100 µM; in experiment [4], greater than 100 µM; in experiment [5] it was greater than 100 µM; in experiment [6] it was greater than 100 µM. Also, the TGI in experiment [7], in experiment [8], in experiment [9] and in experiment [10] was greater than 100 µM throughout.
For the molecule `Cc1oc(N)c(S(=O)(=O)/C(C#N)=C/c2ccccc2[N+](=O)[O-])c1C`, the TGI was greater than 100 µM in experiment [1]; greater than 100 µM in experiment [2]; 52.8 µM in [3]; 35.1 µM in [4]; greater than 100 µM in experiment [5]; greater than 100 µM in [6]. For the same molecule, the TGI was greater than 100 µM in experiment [7], 75.2 µM in experiment [8], greater than 100 µM in experiment [9] and greater than 100 µM in experiment [10].
As for `COC(=O)C1CCC(=O)NCCCCC(NC(=O)C(N)CC(=O)O)C(=O)N1` (stereo not drawn) (H-Asp-Lys-Glu-OMe; lactam 2-3; configuration not given here), the TGI in [1], in experiment [2], in experiment [3], in experiment [4], in experiment [5] and in [6] was greater than 100 µM throughout. Further, the TGI in experiment [7], in experiment [8], in [9] and in experiment [10] was greater than 100 µM each time.
On to `CCOC(=O)c1cnc2n(c1=O)[C@H]1CCCC[C@@H]1N2`, for which the TGI in [1], in experiment [2], in [4], in experiment [5], in [6] and in experiment [7] was greater than 100 µM each time. Also, the TGI in [8], in [9] and in experiment [10] was greater than 100 µM each time.
As for `C[C@@H]1C[C@@H]2OC(=O)[C@]3(C)[C@H]2[C@@H](OC3(C)O)[C@]2(C)C(=O)C=C[C@@H]12` (stereo not given in full), the TGI is 66.9 µM in experiment [1]; greater than 100 µM in experiment [2]; 46 µM in experiment [3]; 35.1 µM in experiment [4]; 45 µM in experiment [6]; greater than 100 µM in experiment [7]. For the same molecule, the TGI was 17.7 µM in [8], 54.7 µM in experiment [9] and greater than 100 µM in [10].
As to `CC1(C)Cc2ccccc2C(C)(Cl)C(=O)N1` (stereo not given), the TGI in experiment [1], in experiment [2], in experiment [3], in experiment [4], in [5] and in [6] was greater than 10 µM throughout. Moreover, the TGI in [7] and in [8] was greater than 10 µM each time.
In the case of `O=C1CC(c2cccc([N+](=O)[O-])c2)C2(C(=O)NC(=S)NC2=O)C(c2cccc([N+](=O)[O-])c2)C1` (stereo not given), the TGI is 66.2 µM in experiment [1]; 59.9 µM in experiment [2]; greater than 100 µM in experiment [4]; greater than 100 µM in [5]; greater than 100 µM in [6]; greater than 100 µM in experiment [7]. The TGI in experiment [8], in [9] and in experiment [10] was greater than 100 µM each time.
As to `C=CCN1C(=O)C[C@H](Cc2ccccc2)NC(=O)C[C@H](Cc2ccccc2)N(CC=C)C(=O)C[C@H](Cc2ccccc2)NC(=O)C[C@@H]1Cc1ccccc1`, the TGI in experiment [1], in [2], in experiment [3], in experiment [4], in [5] and in [7] was greater than 100 µM each time. The TGI in experiment [8] is 9.66 µM; in experiment [9], greater than 100 µM; in experiment [10], greater than 100 µM.
Consider `Cc1c2oc(=O)c(C#N)cc2c2ccccn12`, for which the TGI in experiment [1], in [2], in experiment [3], in experiment [4], in experiment [5] and in [6] was greater than 100 µM throughout. Moreover, the TGI in [7], in experiment [8], in experiment [9] and in experiment [10] was greater than 100 µM throughout.
Take `CC(Cl)(CCC(Cl)C(C)(C)Cl)C(=O)CBr` (stereo not given): the TGI is 30.6 µM in experiment [1]; 33.7 µM in experiment [2]; 11.2 µM in experiment [3]; 32.3 µM in experiment [4]; 26.7 µM in experiment [5]; 20.9 µM in experiment [6]. The TGI in experiment [7] is 33.7 µM; in experiment [8], 7.99 µM; in [9] it was 30.3 µM; in experiment [10], 26.9 µM.
Consider `COc1ccc(N=C(C)C(C)=Nc2ccc(OC)cc2)cc1`, for which the TGI in [1], in experiment [2], in [3], in experiment [4], in experiment [5] and in experiment [6] was greater than 100 µM throughout. For the same molecule, the TGI in experiment [7], in experiment [8], in [9] and in [10] was greater than 100 µM in each case.
`C[C@H](NC(=O)C(C)(Cc1ccc(O)cn1)NC(=O)c1ccccc1)c1ccccc1` (stereo not given in full): the TGI in experiment [1], in [2], in experiment [3], in experiment [4], in experiment [5] and in experiment [6] was greater than 100 µM in each case. The TGI in [7], in experiment [8] and in [9] was greater than 100 µM throughout.
As to `COC(=O)[C@@H]1C=CCN1S(=O)(=O)c1ccc(C)cc1`, the TGI in experiment [1] is 39.2 µM; in [2] it was greater than 100 µM; in [3] it was greater than 100 µM; in experiment [4], greater than 100 µM; in experiment [5], greater than 100 µM; in experiment [6], greater than 100 µM. Also, the TGI in experiment [7], in experiment [8], in [9] and in experiment [10] was greater than 100 µM throughout.
In the case of `O=C(NNC(=O)c1ccc(Cl)cc1NC(=O)C12CC3CC(CC(C3)C1)C2)c1ccc(Cl)cc1`, the TGI stood at 35.6 µM in experiment [1]; 65.1 µM in [2]; 40.3 µM in experiment [3]; 77 µM in [4]; 32.7 µM in experiment [5]; 51.6 µM in experiment [6]. Further, the TGI in experiment [7] was 62.1 µM; in experiment [8], 38.4 µM; in [10], 60.3 µM.
Consider `C(=Nc1ccc(-c2nc3ccccc3s2)cc1)c1cccs1`, for which the TGI is greater than 100 µM in [1]; greater than 100 µM in [2]; 85.3 µM in experiment [3]; greater than 100 µM in experiment [4]; greater than 100 µM in [5]; greater than 100 µM in experiment [6]. The TGI in [7], in experiment [8], in [9] and in [10] was greater than 100 µM in each case.
As to `C/C(CC(O)(C(F)(F)F)C(F)(F)F)=N\O`, the TGI in [1], in [2], in [3], in [4], in [5] and in experiment [6] was greater than 10 µM each time. Also, the TGI in [7], in experiment [8], in experiment [9] and in [10] was greater than 10 µM each time.
For the molecule `COc1ccc(/C=C/C(=O)c2cc(CN(C)C)c(O)c(CN(C)C)c2)cc1`, the TGI in experiment [1], in [2], in experiment [3], in experiment [4], in [5] and in experiment [6] was greater than 100 µM each time. In addition, the TGI in [7] and in experiment [8] was greater than 100 µM each time.
As to `Clc1cc(Cl)nc(Nc2ccc3c(c2)CCC3)n1`, the TGI was greater than 100 µM in experiment [1]; greater than 100 µM in experiment [2]; 51.5 µM in experiment [4]; 72.3 µM in [5]; greater than 100 µM in experiment [6]; greater than 100 µM in [7]. The TGI in experiment [8] is 42 µM; in [9] it was greater than 100 µM; in experiment [10] it was greater than 100 µM.
`COc1ccc(Cn2c(=O)c(OS(=O)(=O)C(F)(F)F)c(C)c3cc4ccccc4cc32)cc1`: the TGI in [1], in experiment [2], in [3], in experiment [4], in experiment [5] and in experiment [6] was greater than 100 µM throughout. Also, the TGI in experiment [7], in [9] and in experiment [10] was greater than 100 µM each time.
Consider `C=C1c2nc3ccccc3n2C=C(c2ccccc2)N1c1ccc(C)cc1`, for which the TGI in [1], in experiment [2], in experiment [3], in experiment [5], in [6] and in [7] was greater than 100 µM throughout. The TGI in [8], in experiment [9] and in [10] was greater than 100 µM each time.
Consider `Cc1ccc(N=Nc2c(O)ccc3ccccc23)c(C)c1`, for which the TGI in experiment [1], in experiment [2], in experiment [3], in [4], in experiment [5] and in [7] was greater than 100 µM each time. In addition, the TGI in experiment [8], in [9] and in [10] was greater than 100 µM each time.
